Measurements published in patent US20220087987A1, “A METHOD FOR TREATING SWI/SNF COMPLEX-DEFICIENT CANCERS COMPRISING GLUTATHIONE (GSH) METABOLIC PATHWAY INHIBITOR” (National Cancer Center, priority 2018, published 2022).
Structures can show the parent of a compound that is named as a salt. Where two headings read alike, the source gives them in different places. Peptide text beside a SMILES is read from it. * marks the point of attachment. Cbz = O=C(OCc1ccccc1)*

What was measured:
[1] = Drug library screen, cell viability (CellTiter-Glo); format: cell-based, human; settings: human; HCT116 ARID1A-WT; 10 μM for 5 days; relative to cells treated with solvent (DMSO); read-out: Cell viability, WT
Summary of the method: (§1)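 Luminescent ATP read-out (CellTiter-Glo) at day 5, normalised to solvent (DMSO) controls, in paired HCT116 lines, ARID1A knockout versus wild type. Candidates selected where KO cells fell below 40% viability and WT cells stayed above 80%.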

ARID1A-KO HCT116 cells = test: as above; format: cell-based, human; settings: Homo sapiens, HCT-116, 120 h, read-out: Cell viability, KO
Summary of the method: as §1

[2] = HCT116 ARID1A-KO, 10 μM for 5 days, relative to cells treated with solvent (DMSO)

Structure (SMILES) | viability at 5 days, 10 μM [1] | viability at 10 µM (ARID1A-KO HCT116 cells; [2]) | viability [1] | viability at 10 µM (ARID1A-KO HCT116 cells)
COc1cc2c(NC3CCN(C(C)C)CC3)nc(C3CCCCC3)nc2cc1OCCCN1CCCC1 [UNC0638] | 2.6% | 3.8% |  | 
CC[C@H]1/C=C/C=C/C[C@@H](C)[C@H](O)[C@@](C)(O)C(=O)[C@@H](C)[C@H](O)[C@@H](C)C(=O)[C@@H](C)[C@H](O)[C@@H](C)/C=C/C(=O)O[C@@H]2[C@H](C)[C@H](CC1)O[C@]1(CC[C@H](C)[C@H](C[C@@H](C)O)O1)[C@H]2C [Oligomycin] | 13.6% | 21.7% |  | 
Cc1cc(Nc2cc(N3CCN(C)CC3)nc(/C=C/c3ccccc3)n2)n[nH]1 [ENMD-2076] | 9.16% | 10.1% |  | 
C=CC[C@@H]1/C=C(\C)C[C@H](C)C[C@H](OC)[C@H]2O[C@@](O)(C(=O)C(=O)N3CCCC[C@H]3C(=O)O[C@H](/C(C)=C/[C@@H]3CC[C@@H](O)[C@H](OC)C3)[C@H](C)[C@@H](O)CC1=O)[C@H](C)C[C@@H]2OC [FK-506] | 173% | 130% |  | 
CCN(CC)CCNC(=O)c1c(C)[nH]c(/C=C2\C(=O)Nc3ccc(F)cc32)c1C [sunitinib malate] | 3.23% | 5.95% |  | 
CO[C@H]1C[C@@H]2CC[C@@H](C)[C@@](O)(O2)C(=O)C(=O)N2CCCC[C@H]2C(=O)O[C@H]([C@H](C)C[C@@H]2CC[C@@H](O)[C@H](OC)C2)CC(=O)[C@H](C)/C=C(\C)[C@@H](O)[C@@H](OC)C(=O)[C@H](C)C[C@H](C)/C=C/C=C/C=C/1C [Rapamycin] | 169% | 125% |  | 
CC(C)C[C@@H](C=O)NC(=O)[C@H](CC(C)C)NC(=O)[C@H](CC(C)C)NC(=O)OCc1ccccc1 [MG-132] (Cbz-Leu-Leu-Leu-aldehyde) |  | 2.45% | 3.45% | 
CC[C@]1(O)C[C@@H]2CN(CCc3c([nH]c4ccccc34)[C@@](C(=O)OC)(c3cc4c(cc3OC)N(C)[C@H]3[C@@](O)(C(=O)OC)[C@H](OC(C)=O)[C@]5(CC)C=CCN6CC[C@]43[C@@H]65)C2)C1 [Vinblastine sulfate] | 2.73% | 4.49% |  | 
CO[C@@H]1[C@H](OC(=O)/C=C/C=C/C=C/C=C/C(=O)O)CC[C@]2(CO2)[C@H]1[C@@]1(C)O[C@@H]1CC=C(C)C [Fumagillin] | 96.4% |  |  | 82.2%
C[C@H]1O[C@@H](n2cnc3c(N)ncnc32)C[C@@H]1O [2′,5′-dideoxyadenosine] |  | 172% | 198% | 
CCC1(c2ccc(N)cc2)CCC(=O)NC1=O (stereo not drawn) [Aminoglutethimide] | 108% | 107% |  | 
CNCc1ccc(-c2[nH]c3cc(F)cc4c3c2CCNC4=O)cc1 [AG014699 (Rucaparib), Rucaparib] | 18.7% | 16% |  | 
C[C@@]12C(=O)OC(=O)[C@]1(C)[C@H]1CC[C@@H]2O1 [Cantharidin] |  | 18.2% | 26.2% | 
CO[C@H]1C[C@@H]2CC[C@@H](C)[C@@](O)(O2)C(=O)C(=O)N2CCCC[C@H]2C(=O)O[C@H]([C@H](C)C[C@@H]2CC[C@@H](OC(=O)C(C)(CO)CO)[C@H](OC)C2)CC(=O)[C@H](C)/C=C(\C)[C@@H](O)[C@@H](OC)C(=O)[C@H](C)C[C@H](C)/C=C/C=C/C=C/1C [temsirolimus] | 82.1% | 75% |  | 
Cc1c[nH]c(-c2cnc(NCCNc3ccc(C#N)cn3)nc2-c2ccc(Cl)cc2Cl)n1 [CT99021] | 63.8% | 73.5% |  | 
CC(C)C(=O)Nc1ccc([N+](=O)[O-])c(C(F)(F)F)c1 [Flutamide] | 163% | 126% |  | 
O=c1c(-c2ccc(O)cc2)coc2cc(O)cc(O)c12 [Genistein] |  | 118% | 173% | 
COc1cc(O)c(CC=C(C)C)c(O)c1C(=O)/C=C/c1ccc(O)cc1 [Xanthohumol] | 104% | 112% |  | 
CN(C)CC[C@H](CSc1ccccc1)Nc1ccc(S(=O)(=O)NC(=O)c2ccc(N3CCN(Cc4ccccc4-c4ccc(Cl)cc4)CC3)cc2)cc1[N+](=O)[O-] [ABT-737] | 94.4% | 89.5% |  | 
N=C(N)NC(=O)c1nc(Cl)c(N)nc1N [Amiloride] | 106% | 113% |  | 

Structure (SMILES) | viability at 5 days, 10 μM [1] | viability at 10 µM (ARID1A-KO HCT116 cells; [2]) | viability [1] | viability at 10 µM (ARID1A-KO HCT116 cells)
Cc1nc(Nc2ncc(C(=O)Nc3c(C)cccc3Cl)s2)cc(N2CCN(CCO)CC2)n1 [dasatinib] | 33.5% | 37.8% |  | 
C[C@@]1(CO)[C@H](O)CC[C@@]2(C)[C@H]1CC[C@H]1C[C@@H]3C[C@@]12CC[C@]3(O)CO [Aphidicolin] | 14% | 11.9% |  | 
C[C@H](NC(=O)/C(C#N)=C/c1cccc(Br)n1)c1ccccc1 [WP1066] | 15.3% | 20% |  | 
COC[C@H]1OC(=O)c2coc3c2[C@@]1(C)C1=C(C3=O)[C@@H]2CCC(=O)[C@@]2(C)C[C@H]1OC(C)=O [Wortmannin] | 181% | 116% |  | 
COc1cc(Nc2ncc3c(n2)-c2ccc(Cl)cc2C(c2c(F)cccc2OC)=NC3)ccc1C(=O)O [MLN8237] | 36.8% | 39.1% |  | 
CN[C@@H]1C[C@H]2O[C@@](C)([C@@H]1OC)n1c3ccccc3c3c4c(c5c6ccccc6n2c5c31)C(=O)NC4 [Staurosporine] |  | 4.14% | 5.22% | 
O=S(=O)(c1cccc2cnccc12)N1CCCNCC1 [HA1077] | 155% | 73.8% |  | 
COCCn1c2c([n+](Cc3cnccn3)c1C)C(=O)c1ccccc1C2=O [YM155] | 2.67% | 3.24% |  | 
CC(=O)N[C@@H](CSC(=O)[C@]1([C@@H](O)C(C)C)NC(=O)[C@H](C)[C@@H]1O)C(=O)O [Lactacystin] | 32.6% | 26.1% |  | 
NC(=O)NO [Hydroxyurea] | 157% | 117% |  | 
CN(Cc1cnc2nc(N)nc(N)c2n1)c1ccc(C(=O)N[C@@H](CCC(=O)O)C(=O)O)cc1 [Methotrexate] | 43% | 43.9% |  | 
O=C(c1cc(Cc2n[nH]c(=O)c3ccccc23)ccc1F)N1CCN(C(=O)C2CC2)CC1 [Olaparib] | 20.9% | 19.5% |  | 
O=c1c2ccccc2[nH]c(=S)n1CCN1CCC(=C(c2ccc(F)cc2)c2ccc(F)cc2)CC1 [Diacylglycerol kinase inhibitor II] | 141% | 171% |  | 
CS(=O)(=O)Nc1ccc([N+](=O)[O-])cc1OC1CCCCC1 [NS-398] | 177% |  |  | 142%
C[C@]1(c2nc3c(C(N)=O)cccc3[nH]2)CCCN1 [ABT-888 (Veliparib), Veliparib] | 62.7% | 53.3% |  | 
COc1cc2ncnc(Nc3ccc(F)c(Cl)c3)c2cc1OCCCN1CCOCC1 [gefitinib] | 54.5% | 72.4% |  | 
C[n+]1cc2c3c(ccc2c2ccc4cc5c(cc4c21)OCO5)OCO3 [Sanguinarine] |  | 2.09% | 1.83% | 
C/C=C/C/C=C/CCC(=O)[C@H]1O[C@H]1C(N)=O [Cerulenin] | 70% | 68.6% |  | 
NC(=O)c1ccc(I)c([N+](=O)[O-])c1 [BSI-201 (Iniparib), Iniparib] | 63.5% | 93.3% |  | 
